Numbered stars: 1 amine (or outer) side, 2 acyl side, 3 side chain; on linkers, the order of the positions; unused ones are H or OH. Bridge positions count the residues as written; N and C are the ends. Square brackets hold non-standard residues; d marks the D form. Peptide text beside a SMILES is read from it. Phe(3R-OH) = O=C([C@@H](N[*:1])[C@H](O[*:3])c1ccccc1)[*:2]; Asn(3S-OH) = NC(=O)[C@@H](O)[C@H](N)C(=O)O; Leu(3R-OH) = CC(C)[C@@H](O)[C@H](N)C(=O)O; aThr = C[C@H](O)[C@H](N)C(=O)O
Columns and labels:
Streptococcus uberis = Streptococcus uberis challenge mouse mastitis model; type: in vivo, lactating mice; settings: 100, 200, 400 or 800 μg/gland hydrogel, 18 h after infection; all glands, with one exception in the highest dosing group
Description: The efficacy of lysobactin (formulated in a hydrogel at pH 4.7) was tested in a Streptococcus uberis challenge mouse mastitis model. Twenty lactating mice were experimentally infected on the fourth pair of mammary glands with S. uberis around 12-15 days after birth of the offspring. Four hours after inoculation, groups of four mice were treated on the same glands with lysobactin at 100, 200, 400, or 800 μg/gland formulated as hydrogel. The fifth group was treated solely with the hydrogel vehicle as negative control. Eighteen hours after infection the animals were euthanized, the glands were removed, homogenized, and bacterial colony forming units (CFUs) were determined by established microbiological methods. Subsequently CFU/mL homogenate as well as CFU/g of gland were calculated. The detection limit was approximately 100 CFU/g of gland. Antimicrobial activity of lysobactin against Strep uberis was determined by comparison of the mean CFUs/gland of the different dosing groups and the negative control group.

[1] = tested on: Streptococcus uberis ATCC 27958; test: spontaneous resistance development; type: cell-based; settings: for obtained colonies: plated CFU 2.4 × 10^10
Description: (§1) The frequency of spontaneous resistance development was assessed by plating at least 1×10^9 colony forming units of the respective bacterial strain on agar plates containing lysobactin at either 4× or 8× the MIC and incubating the plates at 35+/−2° C. […] The resulting number is defined as the spontaneous resistance frequency, and is an indication for the likelihood of resistant isolates to appear during an infection.

[2] = tested on: Staphylococcus aureus ATCC 29740; test: spontaneous resistance development; type: cell-based; settings: for obtained colonies: plated CFU 3.52 × 10^9
Description: as §1

Staphylococcus aureus [3] = test: Staphylococcus aureus acute mouse mastitis model; type: in vivo, lactating CD-1 mice
Description: The efficacy of lysobactin (formulated in a hydrogel at pH 4.7) was tested in a Staphylococcus aureus acute mouse mastitis model established at the University of Sherbrooke, Canada (Broui-llette et al, Vet. Microbiol. (2004) 4:253-262), that is hereby incorporated by reference. Both the abdominal mammary glands (L4 and R4) of lactating CD-1 mice were intramammarily infected with 100 CFU (colony forming units) of S. aureus. The mice were treated intramammarily with lysobactin four hours after infection. Each treatment group contained at least 3 mice (6 quarters) 14 hours later (18 hours after inoculation) mice were sacrificed, mammary glands were harvested and the CFU content evaluated by plating 10-fold serial dilutions of mammary gland homogenates. The CFU content was expressed as log10 count. The detection limit was 200 CFU/g of gland. Glands with less than 200 CFU/g were regarded as cleared.

Staphylococcus aureus [4] = test: dairy cow udder infection model with S. aureus; type: in vivo, lactating dairy cows
Description: Fifteen healthy lactating dairy cows were experimentally infected with the mastitis pathogen Staphylococcus aureus on all four udder quarters. […] Treatments were randomly assigned to 42 udder quarters in total, either 50 mg lysobactin per quarter (in 11 quarters), or 150 mg Lysobactin (in 11 quarters), or Ubrolexin® (in 9 quarters), or saline solution (in 11 quarters). Only udder quarters that were bacteriologically positive for the challenge organism immediately prior to treatment (n=42) were eligible for assessment of microbiological and clinical cure. The diseased quarters were treated with these intramammary formulations two times with an interval of 24 hours in between. Udders were clinically examined and milk samples were taken before treatment and several times after that until three weeks after the second administration. Milk was inspected visually for deviation in its consistency and samples were evaluated for presence of the challenge organism and for somatic cell count to confirm the diagnosis mastitis. Diseased udder quarters were considered microbiologically cured when Staphylococcus aureus found in milk samples shortly before treatment could not be isolated from any milk sample taken within the time period between the third and the twenty-first day after the second treatment. Clinical cure was achieved when the local symptoms of mastitis had completely disappeared, and recovery of somatic cell counts (SCC) as parameter of udder inflammation was attained when all counts remained below 500.000 cells per mL of milk in the period mentioned above.

S. aureus = test: resistance development during serial passaging; type: cell-based, Staphylococcus aureus; settings: constant sub-MIC exposure, 33 days
Description: The appearance of MIC changes during constant exposure of bacteria to sub-MIC concentrations of lysobactin was assessed by serial passaging experiments. On the first day the MICs of S. aureus and S. uberis were assessed by microbroth dilution MIC methodology as described by the Clinical and Laboratory Standards Institute (CLSI). Each day for the following 33 consecutive days, bacteria from the well containing the highest concentrations allowing full growth were collected and used to inoculate new 96-well plates and to assess the MIC during constant exposure to lysobactin. The MIC obtained on each day was plotted over time. Rifampicin, which is known to result in quick changes of the MIC, was used as positive control.

[5] = 50 mg per quarter, Day 3 after second treatment
[6] = 50 mg per quarter, Day 21 after second treatment
[7] = 150 mg per quarter, Day 3 after second treatment
[8] = 150 mg per quarter, Day 21 after second treatment

With `CC[C@H](C)[C@@H]1NC(=O)[C@@H](CCCNC(=N)N)NC(=O)[C@H](CC(C)C)NC(=O)[C@H]([C@H](O)C(C)C)NC(=O)[C@@H](NC(=O)[C@H](CC(C)C)NC(=O)[C@H](N)CC(C)C)[C@@H](c2ccccc2)OC(=O)[C@H](CO)NC(=O)[C@H]([C@H](O)C(N)=O)NC(=O)CNC(=O)[C@H]([C@H](C)O)NC1=O` [lysobactin] (H-[dL]L[Phe(3R-OH)][Leu(3R-OH)]L[dR]I[aThr]G[Asn(3S-OH)]S; ester 3-C) as the molecule, how does the “bacterial counts in glands” value (Streptococcus uberis) read?
The value was < 10^2 CFU/g.

And the frequency of resistance ([1]; 24 h, 2 μg/ml (4x MIC))?
The frequency of resistance was <4.17 × 10^−11.

What about the obtained colonies ([1]; 24 h, 2 μg/ml (4x MIC)) of the same molecule?
Its obtained colonies is 0.

And the frequency of resistance ([1]; 24 h, 4 μg/ml (8x MIC))?
Its frequency of resistance is <4.17 × 10^−11.

What about the obtained colonies ([1]; 24 h, 4 μg/ml (8x MIC)) of the same molecule?
The obtained colonies was 0.

What about the frequency of resistance ([1]; 48 h, 2 μg/ml (4x MIC)) of the same molecule?
The frequency of resistance was <4.17 × 10^−11.

What about the obtained colonies ([1]; 48 h, 2 μg/ml (4x MIC)) of the same molecule?
Its obtained colonies is 0.

What about the frequency of resistance ([1]; 48 h, 4 μg/ml (8x MIC)) of the same molecule?
Its frequency of resistance is <4.17 × 10^−11.

And the obtained colonies ([1]; 48 h, 4 μg/ml (8x MIC))?
The obtained colonies was 0.

And the frequency of resistance ([2]; 24 h, 2 μg/ml (4x MIC))?
Its frequency of resistance is <2.84 × 10^−10.

And the obtained colonies ([2]; 24 h, 2 μg/ml (4x MIC))?
Its obtained colonies is 0.

And the frequency of resistance ([2]; 24 h, 4 μg/ml (8x MIC))?
Its frequency of resistance is <2.84 × 10^−10.

What about the obtained colonies ([2]; 24 h, 4 μg/ml (8x MIC)) of the same molecule?
Its obtained colonies is 0.

What about the frequency of resistance ([2]; 48 h, 2 μg/ml (4x MIC)) of the same molecule?
The frequency of resistance was <2.84 × 10^−10.

And the obtained colonies ([2]; 48 h, 2 μg/ml (4x MIC))?
The obtained colonies was 0.

And the frequency of resistance ([2]; 48 h, 4 μg/ml (8x MIC))?
The frequency of resistance was <2.84 × 10^−10.

What about the obtained colonies ([2]; 48 h, 4 μg/ml (8x MIC)) of the same molecule?
Its obtained colonies is 0.

And the “reduction of median CFU content of mammary glands” value (Staphylococcus aureus [3]; 50 μg intramammary, hydrogel pH 4.7, 4 h after infection, glands harvested 18 h after inoculation)?
Its value is “ca. 4 log10”.

And the “clearance of infection from glands” value (Staphylococcus aureus [3]; 400 μg intramammary, hydrogel pH 4.7, cleared = less than 200 CFU/g of gland)?
The value was “eliminates the infection from all infected glands”.

What about the microbiological cure rate (Staphylococcus aureus [4]; 50 mg per quarter, 2 treatments 24 h apart, Day 3 after second treatment) of the same molecule?
Its microbiological cure rate is 73%.

What about the SCC recovery rate (Staphylococcus aureus [4]; [5]) of the same molecule?
The SCC recovery rate was 36%.

And the “local clinical cure rate” value (Staphylococcus aureus [4]; [5])?
The value was 45%.

And the SCC recovery rate (Staphylococcus aureus [4]; [6])?
Its SCC recovery rate is 45%.

What about the “local clinical cure rate” value (Staphylococcus aureus [4]; [6]) of the same molecule?
Its value is 73%.

And the microbiological cure rate (Staphylococcus aureus [4]; [6])?
The microbiological cure rate was 27%.

What about the SCC recovery rate (Staphylococcus aureus [4]; [7]) of the same molecule?
Its SCC recovery rate is 36%.

What about the “local clinical cure rate” value (Staphylococcus aureus [4]; [7]) of the same molecule?
The value was 37%.

What about the microbiological cure rate (Staphylococcus aureus [4]; [7]) of the same molecule?
Its microbiological cure rate is 73%.

What about the SCC recovery rate (Staphylococcus aureus [4]; [8]) of the same molecule?
Its SCC recovery rate is 91%.

What about the “local clinical cure rate” value (Staphylococcus aureus [4]; [8]) of the same molecule?
Its value is 82%.

What about the microbiological cure rate (Staphylococcus aureus [4]; [8]) of the same molecule?
Its microbiological cure rate is 45%.

And the “MIC change during serial passaging” value (S. aureus)?
The value was “remain constant”.

Source: patent US20180346518A1, “LYSOBACTIN FOR USE IN THE TREATMENT OF BOVINE MASTITIS” (BAYER ANIMAL HEALTH GMBH, priority 2015, published 2018)
